In patent publication EP0087750B2, “Amino acid preparations containing glutaminic residues” (Kabi Pharmacia GmbH, priority 1982, dated 1994):
≈ marks a conversion by molar mass, not a printed value. Blank lines part the entries; values can stand above or below the molecule they belong to. Residues, ends and D or L forms follow the SMILES beside them.

Tests used:
physchem = assay type: physicochemical; settings: water
Text: (§1) Es wurde nun erkannt, daß das Glutamin als an der α-Aminogruppe durch α-Aminoacylreste substituiertes Derivat, d. h. in Form der Tri- oder Dipeptide des Glutamins dem Organismus, insbesondere durch Infusionslösungen, zugeführt werden kann, ohne Gefahr der Bildung des toxischen Cyclisierungsprodukts. Diese Di- und Tripeptide des Glutamins mit anderen Aminosäuren, wie Glycin, Alanin, Leucin, Isoleucin oder Valin, sind sehr leicht wasserlöslich, so daß sie gegebenenfalls in relativ hoher Konzentration in den Infusionslösungen angewendet werden können, wobei gleichzeitig dem Organismus auch andere Aminosäuren zugeführt werden, ohne daß dadurch osmotische Problem auftreten. Die Löslichkeit beispielsweise des Gly-Ala-Gln beträgt 680 g/L H₂O, während die freien Aminosäuren eine geringere Löslichkeit besitzen: […]: 225 g/L H₂O; Alanin: 158 g/L H₂O und Glutamin: […] H₂O.

Solubility in water = assay type: physicochemical
Text: as §1

[1] = tested on: Hydrolasen in den Geweben des Organismus; settings: in vivo, cited from earlier work

solubility (physchem): 158 mg/mL (≈ 1770 mM)
Molecule: C[C@H](N)C(=O)O [Alanin]

solubility (physchem): 325 mg/mL (≈ 2220 mM)
Molecule: NC(=O)CC[C@H](N)C(=O)O [Glutamin]

Molecule: C[C@H](NC(=O)CN)C(=O)N[C@@H](CCC(N)=O)C(=O)O [Gly-Ala-Gln, Glycyl-L-alanyl-L-glutamin] (H-Gly-Ala-Gln-OH)
Löslichkeit (Solubility in water): 680 g/L H₂O

Löslichkeit (physchem): 225 g/L H₂O
Molecule: Glycerin

Molecule: Glycyl-leucin
Elimination aus dem Plasma ([1]; iv): schnell aus dem Plasma eliminiert | Spaltung durch Hydrolasen in den Geweben [1]: gut gespalten
